Data published in patent US7303876B2 (Applera Corporation, priority 2000, dated 2007).
Read-outs that look alike come from different tables or passages of the source.

Key:
slices of liver = assay: Maceration of liver slices by reaction compositions at 65° C.
Protocol: Initially, a series of reaction compositions were analyzed for their ability to disaggregate a biological sample, e.g., slices of liver. These reaction compositions comprised 100 mM Tris, pH 8.0, 20 mM dithiothreitol (DTT), and optionally,1 mg/ml Proteinase K, surfactants (e.g., cationic, nonionic and anionic detergents), chaotropes, or the additive 1-methyl-2-pyrollidinone (Sigma). Each reaction compositions was placed in a tube with a slice of liver and then incubated at 65° C. The tubes were observed periodically to determine which reaction compositions were able to efficiently macerate the sample.

Liver tissue = Liver tissue disaggregation by 1% surfactant with or without Proteinase K at 60° C.; set-up: Tissue Disaggregation: scale not given here; details: 60° C., 1% surfactant
Protocol: To evaluate the ability of various cationic surfactants to increase the digestion of tissue by Proteinase K, liver slices were digested using reaction compositions including one of the sixteen surfactants (shown in Table 4), both with and without Proteinase K. The reducing agent dithiothreitol (DTT) was included to evaluate the effect of reducing conditions on tissue digestion. […] One of the sixteen surfactants was added to one pair of tubes to yield a final concentration of 1% surfactant. The seventeenth pair of tubes served as non-surfactant controls. One milligram (mg) of Proteinase K was added to one tube of each of the seventeen pairs.
PK=presence or absence of Proteinase K in the reaction composition; Y=Proteinase K was present; N=Proteinase K was not present in the reaction composition.

[1] = Solubility of surfactants (0.5% Sarkosyl, LDS, SDS, CTAB; 5.0% others) in salt solutions
Protocol: In certain instances, the solubility of detergents in high salt may relate to on the composition of the salt and the detergent itself. A mixing experiment was performed to examine the solubility of a variety of anionic, cationic, and nonionic surfactants in different salt compositions. […] The salt solutions contained Lil, Nal, KI, Rbl, Csl , GuSCN, GuHCl, or NaClO4, at pH 6.0 or 10.0. […] The solubility of the surfactants was scored as either soluble or insoluble. The solubility of the surfactant in the salt solution was determined initially by visual observations for cloudiness or precipitate formation. The resulting solutions were also centrifuged to verify the absence of a precipitate by the absence of a precipitate pellet.

[2] = No Proteinase K, 72 hr, 65° C., additive 2%
[3] = Fifteen Minutes Incubation, Proteinase K not present (N)
[4] = Fifteen Minutes Incubation, Proteinase K present (Y)
[5] = Fifty-Two Minutes Incubation, Proteinase K not present (N)
[6] = Fifty-Two Minutes Incubation, Proteinase K present (Y)
[7] = 1 mg/ml Proteinase K, 16-24 hr, 65° C., additive 0.1%
[8] = 1 mg/ml Proteinase K, 16-24 hr, 65° C., additive 1%
[9] = 1 mg/ml Proteinase K, 1 hr, 65° C., additive 0.1%
[10] = 1 mg/ml Proteinase K, 1 hr, 65° C., additive 1%

For `CCCCCCCC(=O)O` [Octanonic Acid], the “maceration of liver slice” value (slices of liver; [2]) was 0%.
In the case of `CCCCCCCCS(=O)(=O)O` [Octyl sulfonate], the “maceration of liver slice” value (slices of liver; [2]) is reported as 0%.
For `CCCCCCCCCCCCCC[N+](C)(C)C.[Br-]` [TTAB, tetradecyltrimethylammonium bromide], the “Tissue Disaggregation” value (Liver tissue; [3]) was 0, the “Tissue Disaggregation” value (Liver tissue; [4]) was 0 and the “Tissue Disaggregation” value (Liver tissue; [5]) was 0. For the same compound, the “Tissue Disaggregation” value (Liver tissue; [6]) was 1.
With `C[C@H](CCC(=O)NCCS(=O)(=O)O)[C@H]1CC[C@H]2[C@@H]3[C@H](O)C[C@@H]4C[C@H](O)CC[C@]4(C)[C@H]3CC[C@]12C` [Taurochenodeoxycholic Acid] the “maceration of liver slice” value (slices of liver; [7]) was 0%, the “maceration of liver slice” value (slices of liver; [8]) was 0% and the “maceration of liver slice” value (slices of liver; [9]) was 0%. The “maceration of liver slice” value (slices of liver; [10]) was 0%.
For `C[C@H](CCC(=O)NCCS(=O)(=O)O)[C@H]1CC[C@H]2[C@@H]3[C@H](O)C[C@@H]4C[C@H](O)CC[C@]4(C)[C@H]3C[C@H](O)[C@]12C` [Taurocholic Acid], the “maceration of liver slice” value (slices of liver) was 0%.
In the case of `C[C@H](CCC(=O)NCCS(=O)(=O)O)[C@H]1CC[C@H]2[C@@H]3CC[C@@H]4C[C@H](O)CC[C@]4(C)[C@H]3C[C@H](O)[C@]12C` [Taurodeoxycholic Acid], the “maceration of liver slice” value (slices of liver; [7]) is reported as 0%, the “maceration of liver slice” value (slices of liver; [8]) is reported as 0% and the “maceration of liver slice” value (slices of liver; [9]) is reported as 0%. The “maceration of liver slice” value (slices of liver; [10]) was 0%.
For `C[N+](C)(C)C.[Cl-]` [Tetramethylammonium chloride], the “maceration of liver slice” value (slices of liver; 1 mg/ml Proteinase K, 16-24 hr, 65° C., additive 0.1 M) was 0%, the “maceration of liver slice” value (slices of liver; 1 mg/ml Proteinase K, 16-24 hr, 65° C., additive 1 M) was 0% and the “maceration of liver slice” value (slices of liver; 1 mg/ml Proteinase K, 1 hr, 65° C., additive 0.1 M) was 0%. The “maceration of liver slice” value (slices of liver; 1 mg/ml Proteinase K, 1 hr, 65° C., additive 1 M) was 0%, the “maceration of liver slice” value (slices of liver; No Proteinase K, 16-24 hr, 65° C., additive 0.1 M) was 0% and the “maceration of liver slice” value (slices of liver; No Proteinase K, 16-24 hr, 65° C., additive 1 M) was 0%.
In the case of (octylphenoxy)polyethoxyethanol [IGEPA], the Solubility of surfactant ([1]; pH 6) is reported as “S” and the Solubility of surfactant ([1]; pH 10) is reported as “S”.
In the case of Benzalkonium Chloride, the “Tissue Disaggregation” value (Liver tissue; [3]) is reported as 0, the “Tissue Disaggregation” value (Liver tissue; [4]) is reported as 1 and the “Tissue Disaggregation” value (Liver tissue; [5]) is reported as 0. For the same compound, the “Tissue Disaggregation” value (Liver tissue; [6]) was 2.
With Quaternium-84 [Mackernium NLE] the “Tissue Disaggregation” value (Liver tissue; [3]) was 0, the “Tissue Disaggregation” value (Liver tissue; [4]) was 1 and the “Tissue Disaggregation” value (Liver tissue; [5]) was 0. For the same compound, the “Tissue Disaggregation” value (Liver tissue; [6]) was 1.
In the case of “polyoxyethylenesorbitan monolaurate [Tween 21]”, the Solubility of surfactant ([1]; pH 6) is reported as “S” and the Solubility of surfactant ([1]; pH 10) is reported as “S”.
In the case of “polyoxyethylenesorbitan monooleate [Tween 80]”, the “maceration of liver slice” value (slices of liver; [7]) is reported as 0%, the “maceration of liver slice” value (slices of liver; [8]) is reported as 0% and the “maceration of liver slice” value (slices of liver; [9]) is reported as 0%. The “maceration of liver slice” value (slices of liver; [10]) was 0%, the Solubility of surfactant ([1]; pH 6) was “S” and the Solubility of surfactant ([1]; pH 10) was “S”.
In the case of “polyoxyethylenesorbitan monopalmitate [Tween 40]”, the Solubility of surfactant ([1]; pH 6) is reported as “S” and the Solubility of surfactant ([1]; pH 10) is reported as “S”.
For “polyoxyethylenesorbitan monostearate [Tween 60]”, the Solubility of surfactant ([1]; pH 6) was “S” and the Solubility of surfactant ([1]; pH 10) was “S”.
For “t-octylphenoxypolyethoxyethanol [Triton X-100]”, the “maceration of liver slice” value (slices of liver; [7]) was 0%, the “maceration of liver slice” value (slices of liver; [8]) was 100% and the “maceration of liver slice” value (slices of liver; [9]) was 0%. The “maceration of liver slice” value (slices of liver; [10]) was 30%, the “maceration of liver slice” value (slices of liver; No Proteinase K, 2-5 hr, 65° C., additive 2%) was 0% and the “maceration of liver slice” value (slices of liver; No Proteinase K, 16-24 hr, 65° C., additive 2%) was 0%. The Solubility of surfactant ([1]; pH 6) was “S” and the Solubility of surfactant ([1]; pH 10) was “S”.
